What all share (format): cell-based
One test addresses T1, SLC13A3 (Homo sapiens, UniProt Q8WWT9).
T1 construct: expressed in transfected cells; host or cells: Jump In T-REx HEK293 (general cell-line paragraph)
T1 sequence (Q8WWT9 1-602): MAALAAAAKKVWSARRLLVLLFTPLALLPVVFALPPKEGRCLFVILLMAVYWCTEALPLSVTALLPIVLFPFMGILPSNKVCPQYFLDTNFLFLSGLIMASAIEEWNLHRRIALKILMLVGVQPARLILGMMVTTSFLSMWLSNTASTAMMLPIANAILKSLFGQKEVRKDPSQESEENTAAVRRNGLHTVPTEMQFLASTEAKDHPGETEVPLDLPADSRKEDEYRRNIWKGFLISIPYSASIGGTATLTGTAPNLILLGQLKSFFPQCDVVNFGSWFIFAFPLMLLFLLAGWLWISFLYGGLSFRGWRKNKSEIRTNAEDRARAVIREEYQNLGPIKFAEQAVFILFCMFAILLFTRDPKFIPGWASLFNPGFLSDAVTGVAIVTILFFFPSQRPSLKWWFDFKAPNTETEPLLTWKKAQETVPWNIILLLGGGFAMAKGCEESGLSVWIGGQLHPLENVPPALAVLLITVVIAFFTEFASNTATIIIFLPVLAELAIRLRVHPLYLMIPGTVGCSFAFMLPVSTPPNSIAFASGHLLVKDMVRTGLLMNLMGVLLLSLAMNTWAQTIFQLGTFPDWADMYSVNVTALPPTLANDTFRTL
As to the kind of experiment: RESOLUTE assay on SLC13A3. The method, then: (§1) FLIPR Membrane Potential Blue Dye was used to detect the compound activities for those membrane transporters that are electrogenic or whose activity is associated with changes in membrane potential, as previously described ([Jensen and BräunerOsborne, 2004]). In brief, cells are seeded at cell line-specific density in black clear-bottom poly-D-Lysine-coated 384-well plates (Greiner Bio-One) in DMEM high-glucose medium with 10% FBS, 1% P/S, and 2 mM UltraGlutamine I (25 µL/well). Furthermore, 24 h after seeding, the culture medium is removed, and the cells are loaded with 20 µL/well of 0.5 X FMP Blue Dye in assay buffer (modified Tyrode’s buffer, 130 mM NaCl, 5 mM KCl, 1 mM MgCl2, 2 mM CaCl2, 5 mM NaHCO3, and 20 mM HEPES pH 7.4). The plates are subsequently incubated for at least 30 min at room temperature in the dark. Then, 10 µL/well of test compounds and controls is added at defined concentrations (0.5% DMSO final conc.) in the FLIPR TETRA instrument (Molecular Devices), and emitted fluorescence is recorded using a λexc 510–545-nm/λem 565–625-nm filter. The dose–response curves for the 19 compounds were prepared starting from 3 µM (final top concentration), the half-log serial dilution factor. For data analysis, Genedata Screener 19.0 software was used.
(§2) The robust Z prime factor (RZ’ factor) was calculated with the following formula: RZ^′=1−3∗RSDMAX+RSDMIN/AbsMAX − MIN, where the RZ’ factor is based on the same formula as the Z′ factor ([Zhang et al., 1999]) but standard deviations and means are replaced by the robust standard deviations and medians, respectively. Curve fitting profiles were performed on each dose–response curve with the analyzer module of Genedata Screener 19.0 on % activity.

A further test deals with T2, NHE1 (SLC9A1) (Homo sapiens, UniProt P19634).
T2 construct: endogenous in cells; host or cells: MDA-MB-468
As to the kind of experiment: BCECF-AM pH recovery assay, MDA-MB-468 breast cancer cells. How it is done: The cells were seeded (6.000 cells/well) in poly-d-lysine-coated 384-well plates (black, transparent bottom) and grown for 24 h at 37°C and 5% CO2. The media was removed, and the cells were washed once in sodium-free loading buffer (115 mM choline chloride, 20 mM NH4Cl, 5 mM KCl, 1 mM CaCl2, 1 mM MgCl2, 20 mM HEPES pH 7.4, and 5 mM glucose) and subsequently incubated for 30–45 min at 37°C in a loading buffer containing 10 µM 2′,7′-Bis(2-carboxyethyl)-5(6)-carboxyfluorescein tetrakis (acetoxymethyl) ester (BCECF-AM). The loading buffer was removed, and the cells were washed twice with NH4Cl-free acidification buffer (133.8 mM choline chloride, 4.7 mM KCl, 1.25 mM CaCl2, 1.25 mM MgCl2, 0.97 mM K2HPO4, 0.23 mM KH2PO4, 5 mM HEPES pH 7.4, and 5 mM glucose) using a plate dispenser (Multidrop Combi+, Thermo Fisher Scientific, US). The cells were incubated 5 min with 15 µL compounds at 2× concentration in acidification buffer. The assay readout was acquired using a plate reader (POLARstar Omega, BMG LABTECH, Germany) set to measure Ex./Em. at 440 nm/520 nm and 485 nm/520 nm over a period of 15 min. A baseline read was recorded before the plate readers automated dispensing of 15 µL recovery buffer (133.8 mM NaCl, 4.7 mM KCl, 1.25 mM CaCl2, 1.25 mM MgCl2, 0.97 mM Na2HPO4, 0.23 mM NaH2PO4, 5 mM HEPES pH 7.4, and 5 mM glucose), which initializes cellular pH recovery. The mean baseline measurement was subtracted from the intensities of each well, and a fluorescence intensity ratio for excitations at 485 nm and 440 nm was calculated. The data were normalized to DMSO (maximum) and no recovery controls (minimum). The data were analyzed using R, and the dr4pl package was used to fit dose–response data to the four-parameter logistic model.

The target of another test is T3, SLC6A9 (Homo sapiens, UniProt P48067).
T3 construct: expressed in transfected cells; host or cells: Jump In T-REx HEK293 (general cell-line paragraph)
T3 sequence (P48067 1-706): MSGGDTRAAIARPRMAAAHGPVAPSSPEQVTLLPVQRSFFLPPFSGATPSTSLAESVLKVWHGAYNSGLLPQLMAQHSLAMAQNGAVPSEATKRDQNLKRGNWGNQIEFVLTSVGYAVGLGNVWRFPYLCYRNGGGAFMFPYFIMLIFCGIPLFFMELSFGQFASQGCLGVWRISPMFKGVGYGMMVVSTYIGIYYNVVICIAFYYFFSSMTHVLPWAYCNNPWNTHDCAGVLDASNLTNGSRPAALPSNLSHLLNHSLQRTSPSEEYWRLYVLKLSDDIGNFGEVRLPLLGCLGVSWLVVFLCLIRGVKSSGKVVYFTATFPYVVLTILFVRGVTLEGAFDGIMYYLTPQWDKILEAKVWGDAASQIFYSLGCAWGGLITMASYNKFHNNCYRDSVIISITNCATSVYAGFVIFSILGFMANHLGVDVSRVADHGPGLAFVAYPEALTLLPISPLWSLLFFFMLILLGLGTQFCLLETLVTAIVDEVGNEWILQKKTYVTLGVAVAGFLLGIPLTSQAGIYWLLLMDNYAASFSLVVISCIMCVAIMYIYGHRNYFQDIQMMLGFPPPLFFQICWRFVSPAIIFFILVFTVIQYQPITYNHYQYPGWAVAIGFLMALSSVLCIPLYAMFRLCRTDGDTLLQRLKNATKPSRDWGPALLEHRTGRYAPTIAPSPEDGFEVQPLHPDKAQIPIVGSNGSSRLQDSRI
As to the kind of experiment: RESOLUTE assay on SLC6A9. How it is done: as §1, §2

The mark [1] stands for this setting: Flipr Membrane Potential-Blue-Dye, read-out: pIC50 (act), SLC13A3 (converted).
[2] abbreviates: BCECF, read-out: pIC50 (act), SLC9A1 (converted).
Setting [3] is: target SLC6A9, Flipr Membrane Potential-Blue-Dye, read-out: pIC50 (act) (converted).

This note sets out measurements from PMC11267547, “Advancing drug discovery through assay development: a survey of tool compounds within the human solute carrier superfamily” (Frontiers in Pharmacology, 2024).

Where two headings read alike, the source gives them in different places.

T2 sequence (P19634 whole entry): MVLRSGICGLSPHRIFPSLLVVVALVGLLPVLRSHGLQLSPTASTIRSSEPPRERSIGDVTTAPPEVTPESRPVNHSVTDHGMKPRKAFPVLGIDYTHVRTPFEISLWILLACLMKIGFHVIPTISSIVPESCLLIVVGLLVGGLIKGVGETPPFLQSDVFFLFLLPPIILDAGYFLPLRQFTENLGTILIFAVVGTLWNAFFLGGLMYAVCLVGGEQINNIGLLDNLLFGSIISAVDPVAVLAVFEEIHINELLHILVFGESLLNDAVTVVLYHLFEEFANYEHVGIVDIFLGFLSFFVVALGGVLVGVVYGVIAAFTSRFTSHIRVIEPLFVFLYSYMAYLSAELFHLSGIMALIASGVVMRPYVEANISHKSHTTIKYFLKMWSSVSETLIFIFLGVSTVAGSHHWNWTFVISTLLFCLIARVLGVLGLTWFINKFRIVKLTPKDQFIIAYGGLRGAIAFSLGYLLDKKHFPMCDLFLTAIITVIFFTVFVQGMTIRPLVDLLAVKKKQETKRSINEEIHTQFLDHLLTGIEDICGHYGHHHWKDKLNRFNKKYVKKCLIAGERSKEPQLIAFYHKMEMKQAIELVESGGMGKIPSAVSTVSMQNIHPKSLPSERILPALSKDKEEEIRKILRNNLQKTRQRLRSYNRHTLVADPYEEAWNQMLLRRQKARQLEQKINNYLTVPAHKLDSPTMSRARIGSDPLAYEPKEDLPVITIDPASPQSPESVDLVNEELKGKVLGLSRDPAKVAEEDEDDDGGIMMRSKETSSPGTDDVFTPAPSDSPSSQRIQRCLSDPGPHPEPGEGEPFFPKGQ

As for `Cc1c(NC(=O)c2cc(C(N)=O)nc3cc(F)ccc23)c(C(F)(F)F)nn1Cc1ccc(C#N)cc1` [BAY-876], the results for the IC50 on SLC13A3 (setting [1]), on NHE1 (SLC9A1) (setting [2]) and on SLC6A9 (setting [3]) were above 3.16 µM, above 10 µM and above 3.16 µM, respectively.

As for `CN1C2CCC1CC(OC(c1ccccc1)c1ccccc1)C2` (stereo not drawn) [Benzotropine], the IC50 at SLC13A3 (setting [1]) is above 3.16 µM; at NHE1 (SLC9A1) (setting [2]), above 10 µM; on SLC6A9 (setting [3]), above 3.16 µM.

Turning to `CCNC(=O)/C=C/c1cccc(Br)c1` [Cinromide], the IC50 at SLC13A3 (setting [1]) is above 3.16 µM; at NHE1 (SLC9A1) (setting [2]), above 10 µM; on SLC6A9 (setting [3]), above 3.16 µM.

As for `O=S(=O)(O)c1cc(N=C=S)ccc1/C=C/c1ccc(N=C=S)cc1S(=O)(=O)O` [DIDS], the values for the IC50 on SLC13A3 (setting [1]), at NHE1 (SLC9A1) (setting [2]) and at SLC6A9 (setting [3]) were above 3.16 µM, above 10 µM and above 3.16 µM, respectively.

Take `COCCOc1cc(CC2CCN(CCc3ccc4c(c3)C(=O)CCO4)CC2)ccc1Br` [DSP-1053]: the IC50 is above 3.16 µM on SLC13A3 (setting [1]), above 10 µM on NHE1 (SLC9A1) (setting [2]) and above 3.16 µM at SLC6A9 (setting [3]).

With `CNCCCN1c2ccccc2CCc2ccccc21` [Desipramine], the values for the IC50 at SLC13A3 (setting [1]), at NHE1 (SLC9A1) (setting [2]) and on SLC6A9 (setting [3]) were above 3.16 µM, above 10 µM and above 3.16 µM, respectively.

With `CC(C)[C@H]1CN[C@H](C(=O)O)[C@H]1CC(=O)O` [Dihydrokainate], the figures for the IC50 at SLC13A3 (setting [1]), on NHE1 (SLC9A1) (setting [2]) and on SLC6A9 (setting [3]) were above 3.16 µM, above 10 µM and above 3.16 µM, respectively.

Turning to `N#Cc1ccc(Nc2cnccc2SCc2ccccc2C(=O)O)c2ccccc12` [KPH2f], the IC50 on SLC13A3 (setting [1]) is above 3.16 µM; on NHE1 (SLC9A1) (setting [2]), above 10 µM; at SLC6A9 (setting [3]), above 3.16 µM.

As for `C=C(C)[C@H]1CN[C@H](C(=O)O)[C@H]1CC(=O)O` [Kainic acid], the IC50 was above 3.16 µM against SLC13A3, above 10 µM on NHE1 (SLC9A1) and above 3.16 µM on SLC6A9.

In the case of `CCOC(=O)N1CCC(=C2c3ccc(Cl)cc3CCc3cccnc32)CC1` [Loratadine], the IC50 is above 3.16 µM at SLC13A3 (setting [1]), above 10 µM at NHE1 (SLC9A1) (setting [2]) and above 3.16 µM at SLC6A9 (setting [3]).

As to `Nc1nc2ccc(OC(F)(F)F)cc2s1` [Riluzole], the figures for the IC50 at SLC13A3 (setting [1]), at NHE1 (SLC9A1) (setting [2]) and on SLC6A9 (setting [3]) were above 3.16 µM, above 10 µM and above 3.16 µM, respectively.

`N[C@H](C(=O)O)[C@H](OCc1cccc(NC(=O)c2ccc(C(F)(F)F)cc2)c1)C(=O)O` [TFB-TBOA]: the IC50 on SLC13A3 (setting [1]) is above 3.16 µM; at NHE1 (SLC9A1) (setting [2]), above 10 µM; on SLC6A9 (setting [3]), above 3.16 µM.

Consider `NC(C(=O)O)C(OCc1ccccc1)C(=O)O` (stereo not drawn) [Threo-beta-benzyloxyaspartic acid, Threo-beta-Benzyloxyaspartic acid], for which the IC50 at SLC13A3 (setting [1]) was above 3.16 µM; at NHE1 (SLC9A1) (setting [2]), above 10 µM; on SLC6A9 (setting [3]), above 3.16 µM.

For `Cc1ccsc1C(=CCCN1CCC[C@@H](C(=O)O)C1)c1sccc1C` [Tiagabine], the IC50 on SLC13A3 (setting [1]) was above 3.16 µM; at NHE1 (SLC9A1) (setting [2]), above 10 µM; on SLC6A9 (setting [3]) it was above 3.16 µM.

As to `COc1ccc(C2C(C#N)=C(N)OC3=C2C(=O)CC(c2cccc4ccccc24)C3)cc1` (stereo not drawn) [UCPH-101], the IC50 is above 3.16 µM on SLC13A3 (setting [1]), above 10 µM on NHE1 (SLC9A1) (setting [2]) and above 3.16 µM at SLC6A9 (setting [3]).

For the molecule `CC1C(C#N)=C(N)OC2=C1C(=O)CC(c1cccc3ccccc13)C2` (stereo not drawn) [UCPH-102], the results for the IC50 at SLC13A3 (setting [1]), at NHE1 (SLC9A1) (setting [2]) and on SLC6A9 (setting [3]) were above 3.16 µM, above 10 µM and above 3.16 µM, respectively.

Turning to `Fc1ccc(C(OCCN2CCN(CCCc3ccccc3)CC2)c2ccc(F)cc2)cc1` [Vanoxerine (GBR12909), Vanoxerine], the IC50 at SLC13A3 (setting [1]) is above 3.16 µM; at NHE1 (SLC9A1) (setting [2]), above 10 µM; at SLC6A9 (setting [3]), above 3.16 µM.

For the molecule `N[C@@H](CC(=O)Nc1ccc(Oc2cc(F)c(F)cc2Br)cc1)C(=O)O` [WAY-213613], the IC50 at SLC13A3 (setting [1]) was above 3.16 µM; on NHE1 (SLC9A1) (setting [2]) it was above 10 µM; at SLC6A9 (setting [3]) it was above 3.16 µM.
